SMILES strings stand for the structures.

Turning to `Cc1cccc(C)c1NC(=O)CCN`, the log partition coefficient (logP) is 0.62. In turn, `CCCCC/C=C\C/C=C\C/C=C\C/C=C\CCCC(=O)O` had a lipophilicity (logP) of 6.98. Then `CC(C(N)=O)n1nnc2ccccc21` (configuration not stated), with 0.35; and `CSC(C)=NOC(=O)N(C)SN(C)C(C)=O`, with 1.3.

As for `CC(=O)Nc1c(I)c(C(=O)N(C)CC(O)CO)c(I)c(C(=O)N(C)CC(O)CO)c1I` (configuration not stated), the log partition coefficient (logP) was -2.71. Turning to `COc1ccc(N2Cn3c(nc4ccccc4c3=O)C2C)cc1` (configuration not stated), the lipophilicity (logP) turned out to be 1.73. Then `O=C(OOC(=O)c1ccccc1)c1ccccc1`, with 3.46; and `COCCc1cnc(-c2ccc(OCC(O)CNCCc3ccc(OC)c(OC)c3)cc2)[nH]1` (configuration not stated), with 2.06. Then `O=C(c1ccc(C(F)(F)F)cc1)c1ccc2n1CCC2C(=O)O` (configuration not stated), with 3.71.

Regarding `CCCCCCCOC1OC(CO)C(O)C(O)C1O` (configuration not stated), the log partition coefficient (logP) came out at 0.73. `CC(=O)OCCCN1C(=O)C(OC(C)=O)N=C(c2ccccc2)c2cc(Cl)ccc21` (configuration not stated) displayed a logP of 3.08.

With `C[C@@H]1CC2=CC(=O)CC[C@@H]2[C@H]2CC[C@@]3(C)[C@@H](CC[C@]3(C)O)[C@@H]21`, the lipophilicity (logP) turned out to be 3.19. `O=C(Cn1ccnc1[N+](=O)[O-])N(CCO)CCO`: the logP was -1.64. As to `NNC(=O)c1ccnc(I)c1`, the lipophilicity (logP) worked out at 0.52. Then `CCCCCCCCCCCCCC(=O)O`, with 6.11; and `CC(O)c1ccc2ccccc2c1` (configuration not stated), with 2.68.

For the compound `CCCCNC(=O)NCCNCC(O)COc1ccc(-c2ncc(C)[nH]2)cc1` (configuration not stated), the lipophilicity (logP) worked out at 1.24.

With `CC(C)OC(=O)[C@@H](N)Cc1ccc(O)c(O)c1`, the lipophilicity (logP) amounted to 0.57. Then `CNCCc1ccccc1`, with 1.91. Then `Cc1cc(Br)cc(C(=O)NC2CC2)c1O`, with 3.8; and `CCC1(CC)C(=O)N=C(OC(C)C)NC1=O`, with 1.44.

On to `CC1(C)[C@@H](O[C@H]2O[C@H](C(=O)O)[C@@H](O)[C@H](O)[C@H]2O[C@@H]2O[C@H](C(=O)O)[C@@H](O)[C@H](O)[C@H]2O)CC[C@]2(C)[C@H]3C(=O)C=C4[C@@H]5C[C@@](C)(C(=O)O)CC[C@]5(C)CC[C@@]4(C)[C@]3(C)CC[C@@H]12`, for which the logP amounted to 2.8. In turn, `Cc1ccc(C(O)(Cn2ccnc2)c2ccc(Br)cc2)cc1` (configuration not stated) displayed a log partition coefficient (logP) of 3.55. Then `COC(C)(OC)c1ccc(C(O)(Cn2ccnc2)c2ccc(-c3ccncc3)cc2)cc1` (configuration not stated), with 3.45; and `c1ccc(-c2ccc(-c3ccccc3)cc2)cc1`, with 6.03. Turning to `CCCCn1c(=O)[nH]c(=O)c2[nH]cnc21`, the logP came out at 0.84. Turning to `CCNCC(=O)Nc1c(C)cccc1C`, the lipophilicity (logP) was found to be 1.32.

With `O=C(NN1CC=CCC1)c1cccs1`, the lipophilicity (logP) is 1.88. Then `CCN(CC)CCOC(=O)/C=C/c1ccccc1`, with 3.61; and `CN(C)[C@@H]1C(O)=C(C(N)=O)C(=O)[C@@]2(O)C(O)=C3C(=O)c4c(O)ccc(Cl)c4[C@@](C)(O)[C@H]3C[C@@H]12`, with -0.62; and `CCCCCCCC(C)(C)c1ccc(C2CCCC(O)C2)c(O)c1` (configuration not stated), with 7.18. Then `CC[C@@H]1C(=O)OC[C@@H]1Cc1cncn1C`, with 0.12. Then `CCCOc1ccc(CC(=O)O)cc1`, with 2.31; and `Cc1cc(=O)oc2c1ccc1occc12`, with 2.32; and `CNC(C)C(OC)c1ccccc1` (configuration not stated), with 2.05.

On to `CC(=O)c1nc([N+](=O)[O-])n(CC(C)O)c1C` (configuration not stated), for which the lipophilicity (logP) turned out to be 0.37. The compound `Clc1ccc(Cl)c(-c2ccccc2)c1` gave a logP of 5.1.

The values are drawn from the OPERA property sets (Mansouri et al. 2018).
